Results: patent EP4768484A1, “HETEROCYCLIC FUSED RING COMPOUND, AND COMPOSITION AND USE THEREOF” (Shenzhen TargetRx, Inc., priority 2023, dated 2025)

Columns and labels:
Type in all cases: cell-based
[1] = target: T1, Ba/F3 BCR-ABL1 Y253H/E255K (Homo sapiens, UniProt P00519+P11274, E255K/Y253H); assay: Cell growth inhibitory activity assay (CellTiter-Glo), Ba/F3 BCR-ABL1 Y253H/E255K cells; details: 72 h, CTG cell viability
T1 construct: BCR (N-terminal fusion partner of the oncoprotein); expressed in transfected cells; host or cells: Ba/F3 (lentiviral transduction, monoclonal line)
Method: (§1) In this assay, the Celltiter-Glo (CTG) kit provided by Promega was used, and it is a homogeneous cell viability assay method. The cell viability of cultured cells was measured by quantifying ATP. K562 cells were purchased from Nanjing Kebai, product number CBP60529; Ba/F3 parental cells were purchased from RIKEN BRC, product number RCB0805; other cells containing BCR-ABL1 WT, BCR-ABL1 T315I, BCR-ABL1 T315M, BCR-ABL1 Y253H/E255K, BCR-ABL1 E255V/T3151, BCR-ABL1 A424T, BCR-ABL1 A337V, BCR-ABL1 P465S, BCR-ABL1 V468F, and BCR-ABL1 I502L were all monoclonal engineered cell lines obtained by transducting Ba/F3 parental cells with the lentivirus plasmids containing WT or corresponding mutated BCR-ABL1.
(§2) The steps of cell viability assay are as follows: • a) Cells in logarithmic growth phase were collected. Cell suspension was prepared and the cells were counted. Concentration of the cells was calculated. • b) The cell suspension was diluted to the required concentration and then added to the middle wells of a 96-well plate, and PBS was added to the edge wells. The wells with no cells and only culture medium were used as blank controls. • c) In addition to the cell plate used for compound analysis, another 96-well plate was prepared as a T0 plate, and 3-6 blank wells and 3-6 cell wells were added. The next day, CTG was used to test the cell viability as the T0 viability value of the cells. • d) The cell plate was incubated at 37 °C in a 5% CO2 incubator overnight. • e) The next day, each concentration of a compound subjected to a gradient dilution was added, and the cell plate was incubated at 37 °C in a 5% CO2 incubator for 72 h. The wells with no compound and only 0.5% DMSO were used as positive controls for cell growth. • f) CTG reagent (CellTiter-Glo kit) was added according to the manufacturer's instructions to test the cell viability value. • g) The plate was read using Biotek cytation3.0 microplate reader and the data were exported. • h) IC50 was calculated using GraphPad Prism 7.0 software.
(§3) The IC50 (half-maximal inhibitory concentration) of the compound was obtained using the following nonlinear fitting formula: Y = Bottom + (Top−Bottom)/(1+10^(∧)((LogIC50−X)*HillSlope)) [formula] • X: Log value of the compound concentration • Y: Inhibition rate (% inhibition) • Top: Maximum response • Bottom: Baseline response • HillSlope: Slope of the curve
(§4) The formula for calculating cell inhibition rate (inhibition rate %) was: [formula]

K562 cells = assay: Cell growth inhibitory activity assay (CellTiter-Glo), K562 cells; details: Homo sapiens, 72 h, CTG cell viability
Method in brief: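 K562 cells in logarithmic growth were counted, diluted and plated in 96-well plates, with medium-only blanks and a separate T0 plate read by CTG the following day. After overnight incubation, graded compound concentrations were added for 72 h, with 0.5% DMSO wells as growth controls. Luminescence was read on a Biotek cytation3.0, and IC50 came from nonlinear fitting in GraphPad Prism 7.0.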

Ba/F3 BCR-ABL1 T315M = target: T2, Ba/F3 BCR-ABL1 T315M (Homo sapiens, UniProt P00519+P11274, T315M); assay: Cell growth inhibitory activity assay (CellTiter-Glo), Ba/F3 BCR-ABL1 T315M cells; details: 72 h, CTG cell viability
T2 construct: BCR (N-terminal fusion partner of the oncoprotein); expressed in transfected cells; host or cells: Ba/F3 (lentiviral transduction, monoclonal line)
Method in brief: (§5)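 Luminescent ATP read-out (CellTiter-Glo) after 72 h compound exposure at 37 °C, 5% CO2. Cells: monoclonal Ba/F3 lentivirally engineered with mutant BCR-ABL1, or parental Ba/F3. A T0 plate read the day after seeding; 0.5% DMSO wells as uninhibited growth control. IC50 via variable-slope logistic fit of % inhibition.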

Ba/F3 BCR-ABL1 A424T = target: T3, Ba/F3 BCR-ABL1 A424T (Homo sapiens, UniProt P00519+P11274, A424T); assay: Cell growth inhibitory activity assay (CellTiter-Glo), Ba/F3 BCR-ABL1 A424T cells; details: 72 h, CTG cell viability
T3 construct: BCR (N-terminal fusion partner of the oncoprotein); expressed in transfected cells; host or cells: Ba/F3 (lentiviral transduction, monoclonal line)
Method: as §1, §2, §3, §4

Ba/F3 BCR-ABL1 P465S = target: T4, Ba/F3 BCR-ABL1 P465S (Homo sapiens, UniProt P00519+P11274, P465S); assay: Cell growth inhibitory activity assay (CellTiter-Glo), Ba/F3 BCR-ABL1 P465S cells; details: 72 h, CTG cell viability
T4 construct: BCR (N-terminal fusion partner of the oncoprotein); expressed in transfected cells; host or cells: Ba/F3 (lentiviral transduction, monoclonal line)
Method: as §1, §2, §3, §4

Ba/F3 BCR-ABL1 T315I = target: T5, Ba/F3 BCR-ABL1 T315I (Homo sapiens, UniProt P00519+P11274, T315I); assay: Cell growth inhibitory activity assay (CellTiter-Glo), Ba/F3 BCR-ABL1 T315I cells; details: 72 h, CTG cell viability
T5 construct: BCR (N-terminal fusion partner of the oncoprotein); expressed in transfected cells; host or cells: Ba/F3 (lentiviral transduction, monoclonal line)
Method in brief: as §5

Ba/F3 BCR-ABL1 V468F = target: T6, Ba/F3 BCR-ABL1 V468F (Homo sapiens, UniProt P00519+P11274, V468F); assay: Cell growth inhibitory activity assay (CellTiter-Glo), Ba/F3 BCR-ABL1 V468F cells; details: 72 h, CTG cell viability
T6 construct: BCR (N-terminal fusion partner of the oncoprotein); expressed in transfected cells; host or cells: Ba/F3 (lentiviral transduction, monoclonal line)
Method: as §1, §2, §3, §4

[2] = target: T7, Ba/F3 BCR-ABL1 E255V/T315I (Homo sapiens, UniProt P00519+P11274, E255V/T315I); assay: Cell growth inhibitory activity assay (CellTiter-Glo), Ba/F3 BCR-ABL1 E255V/T315I cells; details: 72 h, CTG cell viability
T7 construct: BCR (N-terminal fusion partner of the oncoprotein); expressed in transfected cells; host or cells: Ba/F3 (lentiviral transduction, monoclonal line)
Method: as §1, §2, §3, §4

Ba/F3 BCR-ABL1 WT = target: T8, Ba/F3 BCR-ABL1 WT (Homo sapiens, UniProt P00519+P11274); assay: Cell growth inhibitory activity assay (CellTiter-Glo), Ba/F3 BCR-ABL1 WT cells; details: 72 h, CTG cell viability
T8 construct: BCR (N-terminal fusion partner of the oncoprotein); expressed in transfected cells; host or cells: Ba/F3 (lentiviral transduction, monoclonal line)
Method in brief: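 Ba/F3 parental cells or Ba/F3 lines lentivirally transduced with WT or mutant BCR-ABL1, seeded overnight then exposed to serially diluted compound 72 h at 37 °C, 5% CO2. Viability by CellTiter-Glo ATP luminescence with a T0 plate; 0.5% DMSO controls; IC50 from four-parameter nonlinear fit.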

Ba/F3 BCR-ABL1 A337V = target: T9, Ba/F3 BCR-ABL1 A337V (Homo sapiens, UniProt P00519+P11274, A337V); assay: Cell growth inhibitory activity assay (CellTiter-Glo), Ba/F3 BCR-ABL1 A337V cells; details: 72 h, CTG cell viability
T9 construct: BCR (N-terminal fusion partner of the oncoprotein); expressed in transfected cells; host or cells: Ba/F3 (lentiviral transduction, monoclonal line)
Method: as §1, §2, §3, §4

Ba/F3 parental cells = assay: Cell growth inhibitory activity assay (CellTiter-Glo), Ba/F3 parental cells; details: Mus musculus, BaF3, 72 h, CTG cell viability, read-out: IC50 Ba/F3 BCR-ABL1 Parental
Method in brief: as §5

Ba/F3 BCR-ABL1 I502L = target: T10, Ba/F3 BCR-ABL1 I502L (Homo sapiens, UniProt P00519+P11274, I502L); assay: Cell growth inhibitory activity assay (CellTiter-Glo), Ba/F3 BCR-ABL1 I502L cells; details: 72 h, CTG cell viability
T10 construct: BCR (N-terminal fusion partner of the oncoprotein); expressed in transfected cells; host or cells: Ba/F3 (lentiviral transduction, monoclonal line)
Method: as §1, §2, §3, §4

SMILES	IC50 [1] [nM]	IC50 (K562 cells) [nM]	IC50 (Ba/F3 BCR-ABL1 T315M) [nM]	IC50 (Ba/F3 BCR-ABL1 A424T) [nM]	IC50 (Ba/F3 BCR-ABL1 P465S) [nM]	IC50 (Ba/F3 BCR-ABL1 T315I) [nM]	IC50 (Ba/F3 BCR-ABL1 V468F) [nM]	IC50 [2] [nM]	IC50 (Ba/F3 BCR-ABL1 WT) [nM]	IC50 (Ba/F3 BCR-ABL1 A337V) [nM]	IC50 (Ba/F3 parental cells) [nM]	IC50 (Ba/F3 BCR-ABL1 I502L) [nM]
C[C@@H]1COCc2nc3cc(C(=O)Nc4ccc(OC(F)(F)Cl)cc4)cc(-c4cnc5c(c4)C(=O)N(C)C5)c3n21 [T-21, (R)-N-(4-(chlorodifluoromethoxy)phenyl)-4-methyl-6-(6-methyl-5-oxo-6,7-dihydro-5H-pyrrolo[3,4-b]pyridin-3-yl)-3,4-dihydro-1H-benzo[4,5]imidazo[2,1-c][1,4]oxazine-8-carboxamide]	5 to 50	≤ 5	> 1000	50 to 1000	50 to 1000	5 to 50	50 to 1000	5 to 50	≤ 5	50 to 1000	> 1000	5 to 50
[2H]C([2H])([2H])N1Cc2ncc(-c3cc(C(=O)Nc4ccc(OC(F)(F)Cl)cc4)cc4nc5n(c34)[C@H](C)COC5)cc2C1=O [T-31, (R)-N-(4-(chlorodifluoromethoxy)phenyl)-4-methyl-6-(6-(methyl-d3)-5-oxo-6,7-dihydro-5H-pyrrolo[3,4-b]pyridin-3-yl)-3,4-dihydro-1H-benzo[4,5]imidazo[2,1-c][1,4]oxazine-8-carboxamide]	5 to 50	≤ 5	5 to 50	5 to 50	50 to 1000	5 to 50	5 to 50	5 to 50	≤ 5	50 to 1000	> 1000	50 to 1000
C[C@@H]1COCc2nc3cc(C(=O)Nc4ccc(OC(F)(F)Cl)cc4)cc(-c4cnc5c(c4)-c4nn(S(C)(=O)=O)cc4C5)c3n21 [T-42, (R)-N-(4-(chlorodifluoromethoxy)phenyl)-4-methyl-6-(2-(methylsulfonyl)-2,4-dihydropyrazolo[3',4':3,4]cyclopenta[1,2-b]pyridin-7-yl)-3,4-dihydro-1H-benzo[4,5]imidazo[2,1-c][1,4]oxazine-8-carboxamide]	50 to 1000	≤ 5	50 to 1000	50 to 1000	50 to 1000	5 to 50	50 to 1000	50 to 1000	≤ 5	50 to 1000	> 1000	50 to 1000
CC(C)n1cc2c(n1)-c1cc(-c3cc(C(=O)Nc4ccc(OC(F)(F)Cl)cc4)cc4nc5n(c34)[C@H](C)COC5)cnc1C2 [T-48, (R)-N-(4-(chlorodifluoromethoxy)phenyl)-6-(2-isopropyl-2,4-dihydropyrazolo[3',4':3,4]cyclopenta[1,2-b]pyridin-7-yl)-4-methyl-3,4-dihydro-1H-benzo[4,5]imidazo[2,1-c][1,4]oxazine-8-carboxamide]	≤ 5	≤ 5	> 1000	5 to 50	50 to 1000	≤ 5	5 to 50	≤ 5	≤ 5	5 to 50	> 1000	5 to 50
C[C@@H]1COCc2nc3cc(C(=O)Nc4ccc(OC(F)(F)Cl)cc4)cc(-c4cnc5c(c4)-c4nn(CC(F)(F)F)cc4C5)c3n21 [T-49, (R)-N-(4-(chlorodifluoromethoxy)phenyl)-4-methyl-6-(2-(2,2,2-trifluoroethyl)-2,4-dihydropyrazolo[3',4':3,4]cyclopenta[1,2-b]pyridin-7-yl)-3,4-dihydro-1H-benzo[4,5]imidazo[2,1-c][1,4]oxazine-8-carboxamide]	≤ 5	≤ 5	50 to 1000	≤ 5	5 to 50	≤ 5	5 to 50	≤ 5	≤ 5	5 to 50	> 1000	5 to 50
C[C@@H]1COCc2nc3cc(C(=O)Nc4ccc(OC(F)(F)Cl)cc4)cc(-c4cnc5c(c4)-c4nn(C6COC6)cc4C5)c3n21 [T-52, (R)-N-(4-(chlorodifluoromethoxy)phenyl)-4-methyl-6-(2-(oxetan-3-yl)-2,4-dihydropyrazolo[3',4':3,4]cyclopenta[1,2-b]pyridin-7-yl)-3,4-dihydro-1H-benzo[4,5]imidazo[2,1-c] [1,4]oxazine-8-carboxamide]	5 to 50	≤ 5	> 1000	5 to 50	50 to 1000	≤ 5	5 to 50	≤ 5	≤ 5	50 to 1000	> 1000	5 to 50
[2H]C([2H])([2H])C([2H])(n1cc2c(n1)-c1cc(-c3cc(C(=O)Nc4ccc(OC(F)(F)Cl)cc4)cc4nc5n(c34)[C@H](C)COC5)cnc1C2)C([2H])([2H])[2H] [T-54]	≤ 5	≤ 5	> 1000	5 to 50	5 to 50	≤ 5	5 to 50	≤ 5	≤ 5	5 to 50	> 1000	5 to 50
C[C@@H]1COCc2nc3cc(C(=O)Nc4ccc(OC(F)(F)Cl)cc4)cc(-c4cnc5c(c4)-c4nn(C6CC6)cc4C5)c3n21 [T-57, (R)-N-(4-(chlorodifluoromethoxy)phenyl)-6-(2-cyclopropyl-2,4-dihydropyrazolo[3',4':3,4]cyclopenta[1,2-b]pyridin-7-yl)-4-methyl-3,4-dihydro-1H-benzo[4,5]imidazo[2,1-c][1,4]oxazine-8-carboxamide]	5 to 50	≤ 5	> 1000	5 to 50	50 to 1000	≤ 5	5 to 50	≤ 5	≤ 5	5 to 50	> 1000	5 to 50
C[C@@H]1COCc2nc3cc(C(=O)Nc4ccc(OC(F)(F)Cl)cc4)cc(-c4cnc5c(c4)-c4nn(-c6ncccn6)cc4C5)c3n21 [T-65]	≤ 5	≤ 5	≤ 5	≤ 5	5 to 50	≤ 5	5 to 50	≤ 5	≤ 5	≤ 5	> 1000	≤ 5
